Results reported in ChEMBL document CHEMBL3044963, “Synthesis and in vitro anticancer activity of novel thiazacridine derivatives” (Med Chem Res, 2013).
Converted amounts (≈) assume the structure as drawn.

Tests used:
MDA-MB-435 [1] = test: Anticancer activity against Homo sapiens (human) MDA-MB-435 cells assessed as inhibition of cell survival after 72 hr by MTT assay; format: functional, cell-based; conditions: MDA-MB-435, 72 h
HCT-8 [2] = test: Anticancer activity against Homo sapiens (human) HCT8 cells assessed as inhibition of cell survival after 72 hr by MTT assay; format: functional, cell-based; conditions: HCT-8, 72 h
SF-295 [3] = test: Anticancer activity against Homo sapiens (human) SF295 cells assessed as inhibition of cell survival after 72 hr by MTT assay; format: functional, cell-based; conditions: SF-295, 72 h
HL-60 = test: Anticancer activity against Homo sapiens (human) HL60 cells assessed as inhibition of cell survival after 72 hr by MTT assay; format: functional, cell-based; conditions: HL-60, 72 h
MDA-MB-435 [4] = test: Anticancer activity against Homo sapiens (human) MDA-MB-435 cells assessed as growth inhibition at 25 ug/ml after 72 hr by MTT assay; format: functional; conditions: MDA-MB-435, 72 h, read-out: GI
HCT-8 [5] = test: Anticancer activity against Homo sapiens (human) HCT8 cells assessed as growth inhibition at 25 ug/ml after 72 hr by MTT assay; format: functional; conditions: HCT-8, 72 h, read-out: GI
SF-295 [6] = test: Anticancer activity against Homo sapiens (human) SF295 cells assessed as growth inhibition at 25 ug/ml after 72 hr by MTT assay; format: functional; conditions: SF-295, 72 h, read-out: GI
MDA-MB-435 [7] = test: Anticancer activity against Homo sapiens (human) MDA-MB-435 cells assessed as growth inhibition at 0.3 ug/ml after 72 hr by MTT assay; format: functional; conditions: MDA-MB-435, 72 h, read-out: GI
HCT-8 [8] = test: Anticancer activity against Homo sapiens (human) HCT8 cells assessed as growth inhibition at 0.3 ug/ml after 72 hr by MTT assay; format: functional; conditions: HCT-8, 72 h, read-out: GI
SF-295 [9] = test: Anticancer activity against Homo sapiens (human) SF295 cells assessed as growth inhibition at 0.3 ug/ml after 72 hr by MTT assay; format: functional; conditions: SF-295, 72 h, read-out: GI

SMILES | IC50 (MDA-MB-435 [1]) [µg/mL] | IC50 (HCT-8 [2]) [µg/mL] | IC50 (SF-295 [3]) [µg/mL] | IC50 (HL-60) [µg/mL] | inhibition of growth at 25 µg/mL (MDA-MB-435 [4]) [%] | inhibition of growth at 25 µg/mL (HCT-8 [5]) [%] | inhibition of growth at 25 µg/mL (SF-295 [6]) [%] | inhibition of growth at 0.3 µg/mL (MDA-MB-435 [7]) [%] | inhibition of growth at 0.3 µg/mL (HCT-8 [8]) [%] | inhibition of growth at 0.3 µg/mL (SF-295 [9]) [%]
O=C1S/C(=C\c2c3ccccc3nc3ccccc23)C(=O)N1Cc1c2ccccc2nc2ccccc12 | 7.01 (≈ 14.1 µM) | 4.45 (≈ 8.94 µM) | 4.44 (≈ 8.92 µM) | > 25 | 95.9 | 92.4 | 76.7 | – | – | –
COc1ccc(/C=C2\SC(=O)N(Cc3c4ccccc4nc4ccccc34)C2=O)cc1Br | > 25 | > 25 | > 25 | > 25 | 53 | 72.5 | 48 | – | – | –
O=C1CSC(=O)N1Cc1c2ccccc2nc2ccccc12 | > 25 | > 25 | > 25 | > 25 | 0 | 42 | 32.8 | – | – | –
Cc1ccc(/C=C2\SC(=O)N(Cc3c4ccccc4nc4ccccc34)C2=O)cc1 | > 25 | > 25 | > 25 | > 25 | 31.2 | 51.3 | 29.9 | – | – | –
O=C1S/C(=C\c2ccc(Br)cc2)C(=O)N1Cc1c2ccccc2nc2ccccc12 | > 25 | 20.6 (≈ 43.4 µM) | > 25 | 19.5 (≈ 41 µM) | 85.3 | 96.6 | 62.2 | – | – | –
O=C1S/C(=C\c2ccc(Cl)cc2)C(=O)N1Cc1c2ccccc2nc2ccccc12 | > 25 | > 25 | > 25 | > 25 | 0 | 37.8 | 31.3 | – | – | –
CS(=O)(=O)c1ccc(/C=C2\SC(=O)N(Cc3c4ccccc4nc4ccccc34)C2=O)cc1 | > 25 | > 25 | > 25 | > 25 | 12.9 | 64.3 | 44.3 | – | – | –
COc1ccc(/C=C2\SC(=O)N(Cc3c4ccccc4nc4ccccc34)C2=O)cc1 | > 25 | 19.3 (≈ 45.2 µM) | > 25 | > 25 | 84.2 | 86.7 | 59.5 | – | – | –
COc1cccc2c1C(=O)c1c(O)c3c(c(O)c1C2=O)C[C@@](O)(C(=O)CO)C[C@@H]3O[C@H]1C[C@H](N)[C@H](O)[C@H](C)O1 [DOXORUBICIN] | 0.24 (≈ 0.442 µM) | – | 0.48 (≈ 0.883 µM) | – | – | – | – | 93.6 | 95.2 | 91.1
